{"source": "paper PMC7770674", "about": "“A Combinative Assembly Strategy Inspired Reversibly Borate-Bridged Polymeric Micelles for Lesion-Specific Rapid Release of Anti-Coccidial Drugs” (Nano-Micro Letters, 2020)", "system": "Caco2 cells", "test": "In vitro cytotoxicity MTT assay", "assay_type": "cell-based, human", "conditions": "DIC concentration 100 μg mL^−1, 48 h", "protocol": "For cell studies, human colon cancer cell line Caco2 cells (Shanghai Institute of Biochemistry and Cell Biology, Chinese Academy of Sciences, Shanghai, China) were cultured in DMEM medium supplemented with 10% FBS, 100 U mL^−1 penicillin, and 100 μg mL^−1 streptomycin at 37 °C under an atmosphere of 5% CO2 and 95% relative humidity. In vitro cytotoxicity of free DIC, blank micelles and DIC-encapsulated micelles were evaluated by 3-(4,5-dimethylthiazol-2-yl)-2,5-diphenyltetrazolium bromide (MTT) assay. Caco2 cells were planted in 96-well plate at a density of 5 × 10^3 cells per well and cultured for another 24 h. The cells were treated with free DIC, PCS/DIC micelles, PCS + DIC mixture, SPCS/DIC micelles and SPCS + DIC mixture at a range of DIC concentrations (0.001–100 μg mL^−1), or PCS and SPCS blank micelles at equivalent concentrations of corresponding drug-loaded micelles for 48 h. Thereafter, 20 µL of MTT solution (5 mg mL^−1) was added to each well and incubated with cells for another 4 h at 37 °C. The culture medium was then removed, and the formed dark blue formazan crystals were dissolved with 100 µL of DMSO. The absorbance at 570 nm was recorded using a microplate reader (EL800, BIO-TEK Instruments Inc., USA). Untreated cells were used as control, and cell viability (%) was calculated according to Eq. (3).3 Cellviability(%)=Atest/Acontrol×100%"}
{"smiles": "N#CC(c1ccc(Cl)cc1)c1c(Cl)cc(-n2ncc(=O)[nH]c2=O)cc1Cl", "note": "(stereo not shown) [Free DIC, Diclazuril]", "values": [{"measurement": "cells survived", "result": "less than 10%"}]}
